Assay results published in patent publication US8309515B2, “Poly(ethylene oxide)-block-poly(ester) block copolymers” (priority 2006, dated 2012).

Assays:
[1] = tested on: B16-BL6 mouse melanoma cells; experiment: In vitro cytotoxicity, MTT assay; type: cell-based
Experimental: In vitro cytotoxicity activity of PEO-b-P(CL-DOX) and DOX loaded PEO-b-P(CL-DOX) block copolymer micelles were investigated against B16-BL6 mouse melanoma cells using MTT assay. […] After this time, MTT solution (20 μL; 5 mg/ml in sterile-filtered PBS) was added to each well and the plates were reincubated for a further 3 h. The formazan crystals were dissolved in DMSO, and the concentration was read by a Power Wave×340 microplate reader (Bio-Tek Instruments, Inc. USA) at 550 nm.

rat red blood cells = experiment: In vitro hemolysis against rat red blood cells; details: 0.1% triton-X 100, positive control
Experimental: Blood was freshly obtained from a Sprague-Dawley rat by cardiac puncture, mixed with sterile isotonic PBS and centrifuged at 3,000 rpm for 5 minutes. The supernatant were pipetted out and the red blood cells were diluted with isotonic sterile PBS (pH: 7.4). The proper dilution factor was estimated from the UV-Vis absorbance of hemoglobin at 576 nm in the supernatant after RBCs were lysed by 0.1% triton X 100. A properly diluted sample of RBCs gave an absorbance of 0.4 to 0.5. […] After incubation the samples were kept in ice bath to stop further hemolysis. The samples were centrifuged at 14,000 rpm for 30 sec to precipitate the intact RBC cells. The supernatant was separated and analyzed for hemoglobin by UV-Vis spectrophotometer at 576 nm. The percentage of hemolyzed RBC was calculated using the equation: % of hemolysis=100 (Abs−Abs0)/(Abs100-Abs0), where Abs, Abs0 and Abs100 are the absorbance for the sample, control with no polymer or DOX and control with 0.1% triton X 100, respectively.

Compound	times lower IC50 / higher cytotoxicity than PEO-b-P(CL-DOX) micelles ([1]; 24 h incubation) [times]	times lower IC50 than PEO-b-P(CL-DOX) micelles ([1]; 48 h incubation) [times]	hemolysis (rat red blood cells) [%]
COc1cccc2c1C(=O)c1c(O)c3c(c(O)c1C2=O)C[C@@](O)(C(=O)CO)C[C@@H]3O[C@H]1C[C@H](N)[C@H](O)[C@H](C)O1 [free DOX, doxorubicin]	50	15	
triton-X 100			100
